Laboratory results: patent US20120165223A1 (priority 2006, published 2012)

Tested on: crypt cells of the colon of HFA mice
Conditions: DNA chip, colonic crypt cells, 200 mg/kg orally four days
Description: The collected colon is opened and intestinal content is cleaned with a sterilized saline solution and put in a cryomold in the longitudinal direction to be embedded as an OCT compound and then it is maintained in a freezer at −80° C. The frozen tissue is cut to have the thickness of 8 μm using a cryotome, put on a glass slide (HistoGene LCM slide, Arcturus) and cleaned using a staing (HistoGene LCM frozen section staing kit, Arcturus) and then a hematoxylin stain is performed and then dehydrated. The stained colonic tissue slide of the dyed mice is put on a laser captured microdissector (PixCell II, Arcturus) and crypt cells are isolated from the colon by a laser.
The amplified aRNA (24 μl) of 10 μg is mixed with random hexamer (5 mg/Ml) of 2 μl to be 24 μl which is heated for 10 minutes at 70° C. The first strand master mix liquid of 26 μl containing Cy3- or Cy5-dUTP (1 mM, respectively) is added to aRNA and reacted for two hours at 37° C. […] After the cDNA is deactivated for three minutes at 98° C., a control target of 25 μl with 2× hybridization buffer of 105 μl (Agilent In situ Hybridization kit) to be instilled on a mouse DNA microarray chip (TwinChip Mouse 7.4K cDNA array, Digital Genomics, Seoul, Korea) and hybridized for 17 hours at 60° C. […] Each fluorescence intensity is obtained by performing a global normalization and measuring the ratio of expressing Cy3- and Cy5- fluorescence with respect to one gene.

Structure (SMILES)	Ang gene expression in comparison with HFA (FIG. 4a)	Casp14 gene expression in comparison with HFA (FIG. 3A)	Eif2ak3 gene expression in comparison with HFA (FIG. 3A)	I16 gene expression in comparison with HFA (FIG. 3A)	Mpp1 gene expression in comparison with HFA (FIG. 4a)	Mt1 gene expression in comparison with HFA (FIG. 4a)	S1c26a1 gene expression in comparison with HFA (FIG. 4a)	Saa3 gene expression in comparison with HFA (FIG. 4a)	Spn2a gene expression in comparison with HFA (FIG. 3A)	Tegt gene expression in comparison with HFA (FIG. 3A)
CN(C)[C@@H]1C(=O)C(C(N)=O)=C(O)[C@@]2(O)C(=O)C3=C(O)c4c(O)cccc4[C@@](C)(O)[C@H]3C[C@@H]12 [TC, Tetracycline]	nearly two or four times	increase the expression of the genes	increase the expression of the genes	increase the expression of the genes	prevent genes from expressing themselves more than twice	nearly two or four times	prevent genes from expressing themselves more than twice	prevent genes from expressing themselves more than twice	prevent genes from expressing themselves more than twice	prevent genes from expressing themselves more than twice
O=C(O)c1cn(C2CC2)c2cc(N3CCNCC3)c(F)cc2c1=O [Cip, Ciprofloxacin]	nearly two or four times	increase the expression of the genes	increase the expression of the genes	increase the expression of the genes	prevent genes from expressing themselves more than twice	nearly two or four times	prevent genes from expressing themselves more than twice	prevent genes from expressing themselves more than twice	prevent genes from expressing themselves more than twice	prevent genes from expressing themselves more than twice
